Experimental data: patent US20070128217A1 (priority 2003, published 2007)

Key:
[1] = system: antibodies in sera from SARS patients (sera 1a, 1b, 2, 6, 37, 62, London, SARS-yellow, SARS-green); type: binding, human; design: Binding of serum 6 to linear peptides of protein X1 of SARS-CoV Urbani / Binding of serum 37 to linear peptides of protein X1 of SARS-CoV Urbani / Binding of serum 6 to looped/cyclic peptide (PEPSCAN-ELISA) / Binding of serum 37 to looped/cyclic peptide (PEPSCAN-ELISA) / Binding of serum 37 to looped/cyclic peptides of protein X1 of SARS-CoV Urbani / Binding of serum 6 to linear peptides of protein X2 / Binding of serum 37 to linear peptides of protein X2 / Binding of serum 37 to looped/cyclic peptides of protein X2 of SARS-CoV Urbani / Binding of serum 6 to linear peptides of protein M of SARS-CoV Urbani / Binding of serum 37 to linear peptides of protein M of SARS-CoV Urbani / Binding of serum 6 to looped/cyclic peptides of protein M of SARS-CoV Urbani / Binding of serum 37 to looped/cyclic peptides of protein M of SARS-CoV Urbani / Binding of serum 6 to linear peptides of protein X3 of SARS-CoV Urbani / Binding of serum 37 to linear peptides of protein X3 of SARS-CoV Urbani / Binding of serum 37 to looped/cyclic peptides of protein X3 of SARS-CoV Urbani / Binding of serum 6 to linear peptides of protein X4 of SARS-CoV Urbani / Binding of serum 37 to linear peptides of protein X4 of SARS-CoV Urbani / Binding of serum 37 to looped/cyclic peptides of protein X4 of SARS-CoV Urbani / Binding of serum 6 to linear peptides of protein X5 of SARS-CoV Urbani / Binding of serum 37 to linear peptides of protein X5 of SARS-CoV Urbani / Binding of serum 37 to looped/cyclic peptides of protein X5 of SARS-CoV Urbani / Binding of serum 6 to linear peptides of protein N of SARS-CoV Urbani / Binding of serum 37 to linear peptides of protein N of SARS-CoV Urbani / Binding of serum 6 to linear peptide (PEPSCAN-ELISA) / Binding of serum 1a to looped/cyclic peptides of protein N of SARS-CoV Urbani / Binding of serum 1b to looped/cyclic peptides of protein N of SARS-CoV Urbani / Binding of serum 2 to looped/cyclic peptides of protein N of SARS-CoV Urbani / Binding of serum 6 to looped/cyclic peptides of protein N of SARS-CoV Urbani / Binding of serum 37 to looped/cyclic peptides of protein N of SARS-CoV Urbani / Binding of serum 62 to looped/cyclic peptides of protein N of SARS-CoV Urbani / Binding of serum London to looped/cyclic peptides of protein N of SARS-CoV Urbani / Binding of serum SARS-green to looped/cyclic peptides of protein N of SARS-CoV Urbani: unit not given here
[2] = system: rabbit serum obtained by immunizing a rabbit with the SARS-CoV strain Frankfurt 1; type: binding; design: Binding of a rabbit serum to linear peptides / Binding of a rabbit serum to looped peptides / Rabbit serum linear peptides / Rabbit serum looped peptides / Binding of a rabbit serum to linear peptides of protein N of SARS-CoV Urbani (Rabbit serum linear peptides) / Binding of a rabbit serum to looped/cyclic peptides of protein N of SARS-CoV Urbani (Rabbit serum looped peptides): unit not given here
[3] = system: control sera (pooled serum of ten healthy LUMC hospital workers; commercial negative donor pooled serum from the Dutch bloodbank); type: binding, human; design: Binding of Control serum LUMC to linear peptides / Binding of Control serum Blood-bank to linear peptides / Binding of Control serum LUMC to looped peptides / Binding of Control Serum Blood-Bank to Looped peptides / Binding of Control serum LUMC to linear peptides of the protein M of SARS-CoV Urbani / Binding of Control serum Blood-bank to linear peptides of the protein M of SARS-CoV Urbani / Binding of Control serum LUMC to looped peptides of the protein M of SARS-CoV Urbani / Binding of Control Serum Blood-Bank to Looped peptides of the protein M of SARS-CoV Urbani: unit not given here

## KDYVVVHGYFTEVYY
[1]
  Binding of serum 1a to linear peptides of protein X1 of SARS-CoV Urbani: 0.7
  Binding of serum 1a to looped/cyclic peptides of protein X1 of SARS-CoV Urbani: 0.5
  Binding of serum 1b to linear peptides of protein X1 of SARS-CoV Urbani: 0.6
  Binding of serum 1b to looped/cyclic peptides of protein X1 of SARS-CoV Urbani: 0.4
  Binding of serum 2 to linear peptides of protein X1 of SARS-CoV Urbani: 0.5
  Binding of serum 2 to looped/cyclic peptides of protein X1 of SARS-CoV Urbani: 0.4
  Binding of serum 6 to linear peptides of protein X1 of SARS-CoV Urbani: 0.4
  Binding of serum 6 to looped/cyclic peptides of protein X1 of SARS-CoV Urbani: 0.2
  Binding of serum 37 to linear peptides of protein X1 of SARS-CoV Urbani: 0.6
  Binding of serum 37 to looped/cyclic peptides of protein X1 of SARS-CoV Urbani: 0.6
  Binding of serum 62 to linear peptides of protein X1 of SARS-CoV Urbani: 0.5
  Binding of serum 62 to looped/cyclic peptides of protein X1 of SARS-CoV Urbani: 0.5
  Binding of serum London to linear peptides of protein X1 of SARS-CoV Urbani: 0.2
  Binding of serum London to looped/cyclic peptides of protein X1 of SARS-CoV Urbani: 0.2
  Binding of serum SARS-green to linear peptides of protein X1 of SARS-CoV Urbani: 0.2
  Binding of serum SARS-green to looped/cyclic peptides of protein X1 of SARS-CoV Urbani: 0.2
  Binding of serum SARS-yellow to linear peptides of protein X1 of SARS-CoV Urbani: 0.3
  Binding of serum SARS-yellow to looped/cyclic peptides of protein X1 of SARS-CoV Urbani: 0.5
[2]
  Binding of a rabbit serum to linear peptides: 0.1
  Binding of a rabbit serum to looped peptides: 0.5
[3]
  Binding of Control Serum Blood-Bank to Looped peptides: 0.5
  Binding of Control serum Blood-bank to linear peptides: 0.5
  Binding of Control serum LUMC to linear peptides: 0.6
  Binding of Control serum LUMC to looped peptides: 0.5

## LPFHRWHTMVQTCTP
[1]
  Binding of serum 1a to linear peptides of protein X5 of SARS-CoV Urbani: 0.8
  Binding of serum 1a to looped/cyclic peptides of protein X5 of SARS-CoV Urbani: 0.5
  Binding of serum 1b to linear peptides of protein X5 of SARS-CoV Urbani: 0.7
  Binding of serum 1b to looped/cyclic peptides of protein X5 of SARS-CoV Urbani: 0.4
  Binding of serum 2 to linear peptides of protein X5 of SARS-CoV Urbani: 0.9
  Binding of serum 2 to looped/cyclic peptides of protein X5 of SARS-CoV Urbani: 0.5
  Binding of serum 6 to linear peptides of protein X5 of SARS-CoV Urbani: 0.6
  Binding of serum 6 to looped/cyclic peptides of protein X5 of SARS-CoV Urbani: 0.3
  Binding of serum 37 to linear peptides of protein X5 of SARS-CoV Urbani: 0.8
  Binding of serum 37 to looped/cyclic peptides of protein X5 of SARS-CoV Urbani: 0.4
  Binding of serum 62 to linear peptides of protein X5 of SARS-CoV Urbani: 0.8
  Binding of serum 62 to looped/cyclic peptides of protein X5 of SARS-CoV Urbani: 0.3
  Binding of serum London to linear peptides of protein X5 of SARS-CoV Urbani: 0.9
  Binding of serum London to looped/cyclic peptides of protein X5 of SARS-CoV Urbani: 0.2
  Binding of serum SARS-green to linear peptides of protein X5 of SARS-CoV Urbani: 0.6
  Binding of serum SARS-green to looped/cyclic peptides of protein X5 of SARS-CoV Urbani: 0.3
  Binding of serum SARS-yellow to linear peptides of protein X5 of SARS-CoV Urbani: 0.4
  Binding of serum SARS-yellow to looped/cyclic peptides of protein X5 of SARS-CoV Urbani: 0.2
[2]
  Rabbit serum linear peptides: 0.5
  Rabbit serum looped peptides: 0.3
[3]
  Binding of Control Serum Blood-Bank to Looped peptides: 0.5
  Binding of Control serum Blood-bank to linear peptides: 0.6
  Binding of Control serum LUMC to linear peptides: 0.5
  Binding of Control serum LUMC to looped peptides: 0.4

## MAISPKFTTSLSLHK
[1]
  Binding of serum 1a to linear peptides of protein X2: 0.7
  Binding of serum 1a to looped/cyclic peptides of protein X2 of SARS-CoV Urbani: 0.5
  Binding of serum 1b to linear peptides of protein X2: 0.7
  Binding of serum 1b to looped/cyclic peptides of protein X2 of SARS-CoV Urbani: 0.5
  Binding of serum 2 to linear peptides of protein X2: 0.7
  Binding of serum 2 to looped/cyclic peptides of protein X2 of SARS-CoV Urbani: 0.4
  Binding of serum 6 to linear peptides of protein X2: 0.6
  Binding of serum 6 to looped/cyclic peptides of protein X2 of SARS-CoV Urbani: 0.4
  Binding of serum 37 to linear peptides of protein X2: 0.7
  Binding of serum 37 to looped/cyclic peptides of protein X2 of SARS-CoV Urbani: 0.4
  Binding of serum 62 to linear peptides of protein X2: 0.7
  Binding of serum 62 to looped/cyclic peptides of protein X2 of SARS-CoV Urbani: 0.6
  Binding of serum London to linear peptides of protein X2: 0.5
  Binding of serum London to looped/cyclic peptides of protein X2 of SARS-CoV Urbani: 0.2
  Binding of serum SARS-green to linear peptides of protein X2: 0.5
  Binding of serum SARS-green to looped/cyclic peptides of protein X2 of SARS-CoV Urbani: 0.4
  Binding of serum SARS-yellow to linear peptides of protein X2: 0.5
  Binding of serum SARS-yellow to looped/cyclic peptides of protein X2 of SARS-CoV Urbani: 0.5
[2]
  Binding of a rabbit serum to linear peptides: 0.3
  Binding of a rabbit serum to looped peptides: 0.6
[3]
  Binding of Control Serum Blood-Bank to Looped peptides: 0.7
  Binding of Control serum Blood-bank to linear peptides: 1.0
  Binding of Control serum LUMC to linear peptides: 0.7
  Binding of Control serum LUMC to looped peptides: 0.6

## LIARCWYLHEGHQTA
[1]
  Binding of serum 1a to linear peptides of protein X5 of SARS-CoV Urbani: 0.7
  Binding of serum 1a to looped/cyclic peptides of protein X5 of SARS-CoV Urbani: 0.4
  Binding of serum 1b to linear peptides of protein X5 of SARS-CoV Urbani: 0.6
  Binding of serum 1b to looped/cyclic peptides of protein X5 of SARS-CoV Urbani: 0.4
  Binding of serum 2 to linear peptides of protein X5 of SARS-CoV Urbani: 0.6
  Binding of serum 2 to looped/cyclic peptides of protein X5 of SARS-CoV Urbani: 0.2
  Binding of serum 6 to linear peptides of protein X5 of SARS-CoV Urbani: 0.1
  Binding of serum 6 to looped/cyclic peptides of protein X5 of SARS-CoV Urbani: 0.1
  Binding of serum 37 to linear peptides of protein X5 of SARS-CoV Urbani: 0.8
  Binding of serum 37 to looped/cyclic peptides of protein X5 of SARS-CoV Urbani: 0.3
  Binding of serum 62 to linear peptides of protein X5 of SARS-CoV Urbani: 0.9
  Binding of serum 62 to looped/cyclic peptides of protein X5 of SARS-CoV Urbani: 0.1
  Binding of serum London to linear peptides of protein X5 of SARS-CoV Urbani: 0.6
  Binding of serum London to looped/cyclic peptides of protein X5 of SARS-CoV Urbani: 0.0
  Binding of serum SARS-green to linear peptides of protein X5 of SARS-CoV Urbani: 0.6
  Binding of serum SARS-green to looped/cyclic peptides of protein X5 of SARS-CoV Urbani: 0.6
  Binding of serum SARS-yellow to linear peptides of protein X5 of SARS-CoV Urbani: 0.0
  Binding of serum SARS-yellow to looped/cyclic peptides of protein X5 of SARS-CoV Urbani: 0.0
[2]
  Rabbit serum linear peptides: 0.8
  Rabbit serum looped peptides: 0.0
[3]
  Binding of Control Serum Blood-Bank to Looped peptides: 0.3
  Binding of Control serum Blood-bank to linear peptides: 0.6
  Binding of Control serum LUMC to linear peptides: 0.4
  Binding of Control serum LUMC to looped peptides: 0.0

## VLLKEPCPSGTYEGN
[1]
  Binding of serum 1a to linear peptides of protein X4 of SARS-CoV Urbani: 0.8
  Binding of serum 1a to looped/cyclic peptides of protein X4 of SARS-CoV Urbani: 0.8
  Binding of serum 1b to linear peptides of protein X4 of SARS-CoV Urbani: 0.7
  Binding of serum 1b to looped/cyclic peptides of protein X4 of SARS-CoV Urbani: 0.7
  Binding of serum 2 to linear peptides of protein X4 of SARS-CoV Urbani: 0.4
  Binding of serum 2 to looped/cyclic peptides of protein X4 of SARS-CoV Urbani: 0.6
  Binding of serum 6 to linear peptides of protein X4 of SARS-CoV Urbani: 0.7
  Binding of serum 6 to looped/cyclic peptides of protein X4 of SARS-CoV Urbani: 0.7
  Binding of serum 37 to linear peptides of protein X4 of SARS-CoV Urbani: 0.7
  Binding of serum 37 to looped/cyclic peptides of protein X4 of SARS-CoV Urbani: 0.8
  Binding of serum 62 to linear peptides of protein X4 of SARS-CoV Urbani: 0.8
  Binding of serum 62 to looped/cyclic peptides of protein X4 of SARS-CoV Urbani: 0.7
  Binding of serum London to linear peptides of protein X4 of SARS-CoV Urbani: 0.8
  Binding of serum London to looped/cyclic peptides of protein X4 of SARS-CoV Urbani: 0.3
  Binding of serum SARS-green to linear peptides of protein X4 of SARS-CoV Urbani: 0.6
  Binding of serum SARS-green to looped/cyclic peptides of protein X4 of SARS-CoV Urbani: 0.5
  Binding of serum SARS-yellow to linear peptides of protein X4 of SARS-CoV Urbani: 0.1
  Binding of serum SARS-yellow to looped/cyclic peptides of protein X4 of SARS-CoV Urbani: 0.4
[2]
  Rabbit serum linear peptides: 0.4
  Rabbit serum looped peptides: 0.3
[3]
  Binding of Control Serum Blood-Bank to Looped peptides: 0.9
  Binding of Control serum Blood-bank to linear peptides: 0.8
  Binding of Control serum LUMC to linear peptides: 0.7
  Binding of Control serum LUMC to looped peptides: 0.8
